Measured values from PubChem BioAssay (NCI).
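Values below derive from 48-hour exposures of cells grown in 96-well plates, with endpoints linearly interpolated between the two concentrations bracketing the appropriate inhibition level. At the TGI there is no net growth.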

Tested on: P388 leukemia
Assay: NCI tumour cell line growth inhibition, 48 h

| SMILES | TGI [µM] |
| --- | --- |
| COc1cc(C2c3cc4c(cc3[C@@H](Nc3ccc([N+](=O)[O-])cc3)C3COC(=O)[C@H]23)OCO4)cc(OC)c1O (some centres not stated) | > 100 |
| CCCS(=O)c1nc(COC(=O)NC)c(COC(=O)NC)n1C (configuration not stated) | > 100 |
